Legend:
[1] = target: T1, IL-1β protease (Homo sapiens, UniProt P29466); test: In vitro IL-1β protease inhibition (HPLC, TRITC-AYVHDAPVRS-NH2 substrate); assay type: biochemical; settings: 15 min preincubation, 60 min at 37° C., 67 μM substrate
T1 sequence (P29466 120-297 limits assumed): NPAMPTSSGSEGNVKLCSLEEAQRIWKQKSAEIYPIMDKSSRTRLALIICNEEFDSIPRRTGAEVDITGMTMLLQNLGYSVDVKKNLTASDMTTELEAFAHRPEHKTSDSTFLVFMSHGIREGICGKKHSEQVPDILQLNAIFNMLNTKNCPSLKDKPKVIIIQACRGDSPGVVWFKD
Experimental: Compounds of the present invention were tested for IL-1β protease inhibition activity according to the following protocols:
Partially purified IL-1β protease is stored at -80° C., thawed on ice, and preincubated for 10 minutes at 37° C. with 2.5 mM dithiothreitol in a buffer solution containing 10 mM Tris-HCl (pH 8.0) and 25% (v/w) glycerol. Inhibitors are prepared as stock solutions in dimethyl sulfoxide (DMSO). The protease is preincubated with inhibitor in a volume of 20 μL in a 1.5 mL polypropylene microcentrifuge tube for 15 minutes at 37° C. The volume of compound added to the assay is adjusted to yield a DMSO concentration in the preincubation of <15% (v/v). The enzyme assay is then initiated by the addition of substrate (TRITC-AYVHDAPVRS-NH2) (SEQ I.D. No. 1) [drawing 5] to yield a final concentration of 67 μM in a final volume of 30 μL. The reaction are carried out for 60 minutes at 37° C. in the dark and are terminated by the addition of […] (TFA). Following the addition of 115 μL of 0.1 % TFA, the samples are analyzed by high pressure liquid chromatography using a reverse phase (C18) column and elution with an acetonitrile/water/TFA gradient. Substrate and product are monitored by their absorbance at 550 nm and elute at 4.2 and 5.2 minutes, respectively.

[2] = test system: release of mature IL-1β, human monocytes; test: "In vivo" human monocyte pulse chase assay, inhibition of release of mature IL-1β; assay type: cell-based; settings: fixed S. aureus stimulation, 2-3 donors
Experimental: In vivo inhibition (IC50) was determined as follows:
Human monocytes were isolated from heparinized leukopheresis units obtained through Biological Specialty Corporation (Lansdale, Pa.). Monocytes were purified by Ficoll-Hupaque (Pharmacia Fine Chemicals, Piscataway, N.J.) gradient centrifugation and more than 95% pure monocyte populations obtained by centrifugal elutriation. The assay was performed on duplicate samples of freshly isolated human monocytes, cultured in suspension at 37° C. and rotated gently in conical bottom polypropylene tubes (Sardstedt Inc., Princeton, N.J.). Human monocytes at a concentration of 5×10^6 cells/mL were resuspended in 1 mL of RPMI 1640 (a common tissue buffer from M.A. Bioproducts, Walkersville, Md.) containing 1% fetal calf serum (FCS) (HyClone, Logan, Utah) and 50 μg/mL gentamycin (Gibco, Grand Island, N.Y.). The cells were treated either with a compound of the invention (i.e. test compound) or with a non-inhibitor (control compound, typically 0.03% DMSO) for 15 minutes and then activated with 0.01% fixed Staphylococcus aureus (The Enzyme Center, Malden, Mass.) for 1 hour. […]
In the monocyte pulse chase assay, each test parameter was run in duplicate. […] When test compounds were evaluated, the percent inhibition of release of mature IL-1β was calculated as follows: […]

[3] = test system: Acute Myelogenous Leukemia Blast; settings: AML; cited from earlier work
[4] = test system: chronic myelogenous leukemia cells; settings: cells removed from leukemia patients (CML); cited from earlier work
[5] = test system: rats; settings: PG-APS model of arthritis in rats; cited from earlier work
[6] = test system: Patients with Rheumatoid Arthritis; settings: small open-label human trial; cited from earlier work
[7] = test system: colon; settings: ulcerative colitis model; cited from earlier work

Molecule | IC50 [1] | IC50 [2] | inhibition of Acute Myelogenous Leukemia Blast Proliferation [3] | inhibition of colony growth [4] | joint swelling [5] | efficacy in Rheumatoid Arthritis trial [6] | tissue necrosis and number of inflammatory cells in the colon [7]
C=CCN(Cc1ccc(Cl)cc1Cl)C(=O)CCl [Example 1] | ≤ 1 µM | < 10 µM | – | – | – | – | –
IL-1 ra: naturally occurring IL-1β receptor antagonist | – | – | Inhibition of Acute Myelogenous Leukemia Blast Proliferation | inhibit colony growth | supresses joint swelling | shows efficacy | reduced tissue necrosis and the number of inflammatory cells in the colon

Reference: patent US5834514A, “Halomethyl amides as IL-1β protease inhibitors” (Vertex Pharmaceuticals, Incorporated, priority 1996, dated 1998)
